This is an account of results in PMC10144134, “Characterization of Potent ABCG2 Inhibitor Derived from Chromone: From the Mechanism of Inhibition to Human Extracellular Vesicles for Drug Delivery” (Pharmaceutics, 2023).

This test addresses T1, ABCG2 (Homo sapiens, UniProt Q9UNQ0).
T1 sequence (Q9UNQ0 1-655): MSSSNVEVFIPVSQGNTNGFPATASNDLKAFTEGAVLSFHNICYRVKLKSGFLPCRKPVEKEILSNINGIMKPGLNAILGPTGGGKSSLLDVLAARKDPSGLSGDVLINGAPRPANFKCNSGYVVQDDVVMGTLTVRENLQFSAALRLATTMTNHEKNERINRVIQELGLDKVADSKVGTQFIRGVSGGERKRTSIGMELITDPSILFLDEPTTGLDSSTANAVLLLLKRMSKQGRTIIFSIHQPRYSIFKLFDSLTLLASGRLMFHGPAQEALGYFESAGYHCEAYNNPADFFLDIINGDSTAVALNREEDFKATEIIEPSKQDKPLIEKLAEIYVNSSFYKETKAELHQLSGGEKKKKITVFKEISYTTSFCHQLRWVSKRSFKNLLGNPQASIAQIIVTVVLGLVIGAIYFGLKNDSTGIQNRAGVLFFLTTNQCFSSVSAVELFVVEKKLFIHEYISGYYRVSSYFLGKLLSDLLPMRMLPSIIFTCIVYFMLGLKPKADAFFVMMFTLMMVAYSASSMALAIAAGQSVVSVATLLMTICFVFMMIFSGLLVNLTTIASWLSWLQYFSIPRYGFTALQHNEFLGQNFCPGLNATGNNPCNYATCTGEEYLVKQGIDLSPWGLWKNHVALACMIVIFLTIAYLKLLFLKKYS
The experiment in a line: ATPase activity, High-Five ABCG2 total membrane vesicles.

Procedure: The absorbance was measured after 10 min incubation at room temperature using the spectrophotometer Ultrospec 3100 pro (Amersham Biosciences, Amersham, UK) at 880 nm wavelength.

Turning to `COc1ccc2[nH]cc(CCNC(=O)c3cc(=O)c4c(OCc5ccccc5Br)cccc4o3)c2c1` [C4a, chromone 4a], the EC50 stood at 64 nM. This counts as double-digit nanomolar.
